Data as given in ChEMBL document CHEMBL5291721, “A preclinical secondary pharmacology resource illuminates target-adverse drug reaction associations of marketed drugs” (Nat Commun, 2023).

What was measured:
Progesterone receptor = molecular target: T1, Progesterone receptor (Homo sapiens, UniProt P06401); format: functional
T1 sequence (P06401 whole entry): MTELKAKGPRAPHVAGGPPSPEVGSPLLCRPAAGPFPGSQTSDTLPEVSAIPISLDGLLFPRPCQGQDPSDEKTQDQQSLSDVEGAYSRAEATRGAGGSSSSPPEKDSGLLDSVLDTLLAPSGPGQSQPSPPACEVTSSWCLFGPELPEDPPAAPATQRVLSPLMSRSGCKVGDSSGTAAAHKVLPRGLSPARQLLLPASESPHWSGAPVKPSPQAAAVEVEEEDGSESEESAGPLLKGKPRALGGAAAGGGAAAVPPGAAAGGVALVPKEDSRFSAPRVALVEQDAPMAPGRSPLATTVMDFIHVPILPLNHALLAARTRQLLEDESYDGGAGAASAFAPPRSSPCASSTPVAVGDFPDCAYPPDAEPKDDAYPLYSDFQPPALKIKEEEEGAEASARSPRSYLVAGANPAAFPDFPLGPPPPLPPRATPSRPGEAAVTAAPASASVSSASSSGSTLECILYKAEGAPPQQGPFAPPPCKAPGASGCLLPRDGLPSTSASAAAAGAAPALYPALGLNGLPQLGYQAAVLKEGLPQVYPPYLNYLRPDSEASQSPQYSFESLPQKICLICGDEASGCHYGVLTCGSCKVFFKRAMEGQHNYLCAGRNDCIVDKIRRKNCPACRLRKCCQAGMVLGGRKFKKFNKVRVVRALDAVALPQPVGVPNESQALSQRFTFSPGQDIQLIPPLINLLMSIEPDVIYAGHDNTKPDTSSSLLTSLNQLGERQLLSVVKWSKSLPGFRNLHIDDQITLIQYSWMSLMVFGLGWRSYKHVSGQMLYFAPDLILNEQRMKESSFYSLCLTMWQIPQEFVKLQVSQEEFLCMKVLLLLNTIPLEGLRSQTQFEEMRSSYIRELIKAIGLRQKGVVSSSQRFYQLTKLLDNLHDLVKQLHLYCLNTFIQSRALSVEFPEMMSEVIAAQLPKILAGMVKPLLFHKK

[1] = molecular target: T2, Alpha-1A adrenergic receptor (Homo sapiens, UniProt P35348)
T2 sequence (P35348 whole entry): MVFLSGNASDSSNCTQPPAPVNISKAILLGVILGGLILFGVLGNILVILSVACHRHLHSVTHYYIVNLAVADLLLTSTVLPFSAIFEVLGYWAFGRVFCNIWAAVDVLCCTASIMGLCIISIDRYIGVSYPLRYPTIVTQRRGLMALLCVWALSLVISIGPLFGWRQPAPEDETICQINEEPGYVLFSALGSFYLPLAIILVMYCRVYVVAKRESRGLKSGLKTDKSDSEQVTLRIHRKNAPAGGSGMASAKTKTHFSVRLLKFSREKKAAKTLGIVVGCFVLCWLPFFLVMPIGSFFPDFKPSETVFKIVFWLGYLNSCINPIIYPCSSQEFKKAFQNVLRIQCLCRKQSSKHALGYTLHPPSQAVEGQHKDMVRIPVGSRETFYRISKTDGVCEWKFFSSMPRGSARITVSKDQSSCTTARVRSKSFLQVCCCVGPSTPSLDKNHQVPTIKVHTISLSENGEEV

Vasopressin V1a receptor = Vasopressin V1a receptor (Homo sapiens, UniProt P37288)
[2] = molecular target: Voltage-dependent L-type calcium channel subunit alpha-1C (Rattus norvegicus, UniProt P22002); format: functional
[3] = molecular target: T3, Muscarinic acetylcholine receptor M2 (Homo sapiens, UniProt P08172); format: functional, cell-based
T3 sequence (P08172 whole entry): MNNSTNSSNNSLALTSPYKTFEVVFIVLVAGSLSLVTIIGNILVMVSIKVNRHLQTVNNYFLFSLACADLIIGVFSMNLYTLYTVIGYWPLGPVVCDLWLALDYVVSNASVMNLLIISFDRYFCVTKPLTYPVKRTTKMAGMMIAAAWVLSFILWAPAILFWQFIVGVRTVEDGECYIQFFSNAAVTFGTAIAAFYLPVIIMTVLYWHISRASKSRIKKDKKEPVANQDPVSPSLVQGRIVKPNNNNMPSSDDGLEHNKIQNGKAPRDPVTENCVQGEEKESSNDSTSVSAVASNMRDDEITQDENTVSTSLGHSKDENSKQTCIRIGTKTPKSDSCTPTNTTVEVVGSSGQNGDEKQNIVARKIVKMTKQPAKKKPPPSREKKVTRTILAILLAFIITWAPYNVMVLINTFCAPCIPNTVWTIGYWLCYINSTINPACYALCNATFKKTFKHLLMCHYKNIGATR

Mu-type opioid receptor = Mu-type opioid receptor (Homo sapiens, UniProt P35372); experiment: biochemical; format: functional
[4] = molecular target: T2, Alpha-1A adrenergic receptor; format: functional, cell-based
Acetylcholinesterase = Acetylcholinesterase (Homo sapiens, UniProt P22303); format: functional
[5] = molecular target: T4, 5-hydroxytryptamine receptor 1A (Homo sapiens, UniProt P08908)
T4 sequence (P08908 whole entry): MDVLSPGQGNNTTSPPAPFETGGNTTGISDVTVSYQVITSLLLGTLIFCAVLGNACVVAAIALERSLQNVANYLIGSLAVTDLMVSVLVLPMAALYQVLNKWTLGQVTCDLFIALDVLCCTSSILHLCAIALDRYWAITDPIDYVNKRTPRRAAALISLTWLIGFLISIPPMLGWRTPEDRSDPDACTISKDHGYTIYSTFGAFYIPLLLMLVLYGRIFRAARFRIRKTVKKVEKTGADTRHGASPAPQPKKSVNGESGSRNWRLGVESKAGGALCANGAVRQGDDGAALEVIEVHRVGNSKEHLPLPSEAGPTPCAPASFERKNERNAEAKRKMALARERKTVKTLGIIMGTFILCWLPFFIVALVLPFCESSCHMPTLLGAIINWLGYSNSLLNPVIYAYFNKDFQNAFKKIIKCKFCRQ

[6] = molecular target: T2, Alpha-1A adrenergic receptor; format: functional, cell-based; remark: listed apart in the source
Cannabinoid receptor 1 = Cannabinoid receptor 1 (Homo sapiens, UniProt P21554); format: functional, cell-based
[7] = molecular target: Beta-2 adrenergic receptor (Homo sapiens, UniProt P07550); format: functional, cell-based
Note: assay procedure not described here.

Chain of Mu-type opioid receptor (P35372 whole entry): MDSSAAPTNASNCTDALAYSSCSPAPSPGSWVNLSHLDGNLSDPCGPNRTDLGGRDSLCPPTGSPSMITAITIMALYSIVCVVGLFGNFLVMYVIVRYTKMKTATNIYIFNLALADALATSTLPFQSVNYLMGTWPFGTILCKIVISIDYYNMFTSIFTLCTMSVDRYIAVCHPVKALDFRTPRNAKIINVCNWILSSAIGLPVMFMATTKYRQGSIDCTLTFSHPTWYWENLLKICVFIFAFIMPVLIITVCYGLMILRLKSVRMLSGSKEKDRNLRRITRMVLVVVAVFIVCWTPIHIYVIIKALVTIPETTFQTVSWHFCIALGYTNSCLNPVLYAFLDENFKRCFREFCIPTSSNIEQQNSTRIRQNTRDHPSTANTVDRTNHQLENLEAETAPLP
Chain of Voltage-dependent L-type calcium channel subunit alpha-1C (P22002 whole entry): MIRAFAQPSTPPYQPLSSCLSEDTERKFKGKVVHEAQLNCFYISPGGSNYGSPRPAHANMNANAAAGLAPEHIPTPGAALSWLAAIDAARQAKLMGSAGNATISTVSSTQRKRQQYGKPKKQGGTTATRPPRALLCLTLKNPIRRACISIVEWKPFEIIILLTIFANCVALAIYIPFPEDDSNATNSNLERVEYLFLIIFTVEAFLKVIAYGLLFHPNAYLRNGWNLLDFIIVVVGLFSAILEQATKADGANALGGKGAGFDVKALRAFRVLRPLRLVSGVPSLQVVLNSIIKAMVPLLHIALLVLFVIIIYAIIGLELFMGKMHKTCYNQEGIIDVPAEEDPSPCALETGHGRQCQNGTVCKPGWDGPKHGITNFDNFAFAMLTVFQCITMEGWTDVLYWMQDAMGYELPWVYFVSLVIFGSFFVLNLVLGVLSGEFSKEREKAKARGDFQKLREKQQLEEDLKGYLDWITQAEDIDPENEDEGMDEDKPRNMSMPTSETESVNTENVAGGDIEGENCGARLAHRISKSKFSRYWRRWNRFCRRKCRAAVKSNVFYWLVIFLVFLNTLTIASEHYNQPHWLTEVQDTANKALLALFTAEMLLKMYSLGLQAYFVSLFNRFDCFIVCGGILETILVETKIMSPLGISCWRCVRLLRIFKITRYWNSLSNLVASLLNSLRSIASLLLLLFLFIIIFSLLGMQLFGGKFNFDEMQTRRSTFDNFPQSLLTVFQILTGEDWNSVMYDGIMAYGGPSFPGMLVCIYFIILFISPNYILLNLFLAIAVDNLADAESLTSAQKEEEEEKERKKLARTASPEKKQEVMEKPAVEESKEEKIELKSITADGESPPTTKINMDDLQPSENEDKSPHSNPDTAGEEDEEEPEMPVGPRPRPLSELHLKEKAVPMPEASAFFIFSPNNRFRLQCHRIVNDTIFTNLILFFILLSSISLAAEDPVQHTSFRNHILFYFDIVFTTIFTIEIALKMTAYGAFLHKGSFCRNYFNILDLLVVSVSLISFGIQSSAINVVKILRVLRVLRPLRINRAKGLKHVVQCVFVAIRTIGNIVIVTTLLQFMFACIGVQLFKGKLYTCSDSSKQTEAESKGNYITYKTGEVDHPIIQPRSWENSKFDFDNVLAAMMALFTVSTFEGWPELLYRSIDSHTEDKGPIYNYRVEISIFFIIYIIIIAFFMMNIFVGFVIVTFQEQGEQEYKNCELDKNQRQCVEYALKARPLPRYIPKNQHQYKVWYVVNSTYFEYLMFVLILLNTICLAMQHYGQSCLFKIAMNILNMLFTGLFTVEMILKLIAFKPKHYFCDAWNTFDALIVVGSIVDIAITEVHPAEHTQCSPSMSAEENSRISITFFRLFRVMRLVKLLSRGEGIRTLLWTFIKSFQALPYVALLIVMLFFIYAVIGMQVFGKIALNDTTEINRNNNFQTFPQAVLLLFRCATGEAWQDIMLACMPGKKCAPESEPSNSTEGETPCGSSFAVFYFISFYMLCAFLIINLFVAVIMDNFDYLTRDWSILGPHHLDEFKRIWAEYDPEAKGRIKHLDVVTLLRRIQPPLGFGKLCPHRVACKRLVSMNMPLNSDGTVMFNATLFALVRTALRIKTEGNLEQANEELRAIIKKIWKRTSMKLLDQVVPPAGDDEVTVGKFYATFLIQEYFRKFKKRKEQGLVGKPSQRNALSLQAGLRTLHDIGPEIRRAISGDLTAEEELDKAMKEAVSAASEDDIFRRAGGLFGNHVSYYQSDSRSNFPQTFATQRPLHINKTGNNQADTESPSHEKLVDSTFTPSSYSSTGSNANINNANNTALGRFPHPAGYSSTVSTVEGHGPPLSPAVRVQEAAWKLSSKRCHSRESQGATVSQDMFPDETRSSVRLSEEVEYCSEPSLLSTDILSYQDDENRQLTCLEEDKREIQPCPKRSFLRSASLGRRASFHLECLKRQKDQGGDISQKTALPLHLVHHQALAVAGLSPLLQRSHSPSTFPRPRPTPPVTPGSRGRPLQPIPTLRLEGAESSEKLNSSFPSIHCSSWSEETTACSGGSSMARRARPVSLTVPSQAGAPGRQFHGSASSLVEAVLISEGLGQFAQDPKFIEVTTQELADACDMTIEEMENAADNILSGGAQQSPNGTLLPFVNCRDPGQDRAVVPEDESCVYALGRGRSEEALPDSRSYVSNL
Chain of Vasopressin V1a receptor (P37288 whole entry): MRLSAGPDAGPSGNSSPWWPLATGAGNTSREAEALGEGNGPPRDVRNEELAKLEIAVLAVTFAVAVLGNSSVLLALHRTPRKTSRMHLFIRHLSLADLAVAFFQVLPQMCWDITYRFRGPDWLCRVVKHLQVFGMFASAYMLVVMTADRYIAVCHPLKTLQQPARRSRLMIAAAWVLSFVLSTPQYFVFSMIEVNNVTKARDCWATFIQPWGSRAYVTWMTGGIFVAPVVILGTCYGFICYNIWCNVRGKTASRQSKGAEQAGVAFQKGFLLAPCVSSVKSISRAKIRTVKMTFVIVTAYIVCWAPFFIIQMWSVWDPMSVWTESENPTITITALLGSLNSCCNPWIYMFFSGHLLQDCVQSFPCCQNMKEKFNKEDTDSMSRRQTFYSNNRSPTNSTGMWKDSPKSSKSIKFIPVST
Chain of Cannabinoid receptor 1 (P21554 whole entry): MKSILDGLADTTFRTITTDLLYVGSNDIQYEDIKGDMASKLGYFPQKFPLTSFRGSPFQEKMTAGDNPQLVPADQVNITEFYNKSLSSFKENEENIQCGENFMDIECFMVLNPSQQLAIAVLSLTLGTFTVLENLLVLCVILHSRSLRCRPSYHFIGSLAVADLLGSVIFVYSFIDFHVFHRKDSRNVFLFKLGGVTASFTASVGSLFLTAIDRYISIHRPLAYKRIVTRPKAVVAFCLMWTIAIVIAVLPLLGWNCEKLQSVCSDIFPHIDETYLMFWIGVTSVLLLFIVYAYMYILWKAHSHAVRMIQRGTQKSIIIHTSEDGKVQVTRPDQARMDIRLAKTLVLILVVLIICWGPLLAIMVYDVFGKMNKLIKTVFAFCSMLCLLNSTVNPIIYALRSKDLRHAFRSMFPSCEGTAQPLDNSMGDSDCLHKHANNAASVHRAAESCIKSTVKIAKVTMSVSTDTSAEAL
Chain of Acetylcholinesterase (P22303 whole entry): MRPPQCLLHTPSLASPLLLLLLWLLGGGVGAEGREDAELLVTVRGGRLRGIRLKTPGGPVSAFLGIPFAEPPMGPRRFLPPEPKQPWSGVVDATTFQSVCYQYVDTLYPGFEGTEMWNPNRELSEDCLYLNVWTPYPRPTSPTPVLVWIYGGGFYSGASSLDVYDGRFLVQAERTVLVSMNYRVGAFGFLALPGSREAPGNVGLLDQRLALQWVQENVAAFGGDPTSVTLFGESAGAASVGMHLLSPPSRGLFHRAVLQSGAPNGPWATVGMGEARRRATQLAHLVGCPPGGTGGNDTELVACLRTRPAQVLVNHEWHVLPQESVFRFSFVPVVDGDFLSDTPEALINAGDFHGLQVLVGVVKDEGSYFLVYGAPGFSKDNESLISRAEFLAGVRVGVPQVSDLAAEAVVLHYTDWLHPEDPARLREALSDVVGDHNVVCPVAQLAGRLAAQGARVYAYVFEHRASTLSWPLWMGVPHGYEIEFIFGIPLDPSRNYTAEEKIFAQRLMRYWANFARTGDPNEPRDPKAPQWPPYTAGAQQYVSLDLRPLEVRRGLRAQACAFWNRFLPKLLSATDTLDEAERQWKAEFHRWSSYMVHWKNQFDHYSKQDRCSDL
Chain of Beta-2 adrenergic receptor (P07550 whole entry): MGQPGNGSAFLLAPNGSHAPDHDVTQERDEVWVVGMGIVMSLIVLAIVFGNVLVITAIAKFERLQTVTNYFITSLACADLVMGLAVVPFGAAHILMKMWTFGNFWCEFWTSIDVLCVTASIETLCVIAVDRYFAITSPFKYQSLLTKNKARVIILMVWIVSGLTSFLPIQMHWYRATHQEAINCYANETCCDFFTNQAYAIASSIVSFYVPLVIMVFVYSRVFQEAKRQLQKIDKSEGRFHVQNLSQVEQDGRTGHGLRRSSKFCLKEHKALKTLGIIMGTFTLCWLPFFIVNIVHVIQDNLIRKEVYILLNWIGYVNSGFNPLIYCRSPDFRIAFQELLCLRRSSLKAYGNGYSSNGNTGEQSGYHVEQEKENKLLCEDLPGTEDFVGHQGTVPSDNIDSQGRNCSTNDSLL

SMILES	AC50 (Progesterone receptor) [µM]	AC50 [1] [µM]	AC50 (Vasopressin V1a receptor) [µM]	AC50 [2] [µM]	AC50 [3] [µM]	AC50 (Mu-type opioid receptor) [µM]	AC50 [4] [µM]	AC50 (Acetylcholinesterase) [µM]	AC50 [5] [µM]	AC50 [6] [µM]	AC50 (Cannabinoid receptor 1) [µM]	AC50 [7] [µM]
CCCCC1C(=O)N(c2ccccc2)N(c2ccccc2)C1=O [PHENYLBUTAZONE]	> 10	> 10	> 30	> 10	> 10							
[H]/N=C(/N)N/C(=N/[H])NCCc1ccccc1 [PHENFORMIN]		15	> 30	> 30	> 10	> 30						
CC[C@@H]([C@H](C)O)n1ncn(-c2ccc(N3CCN(c4ccc(OC[C@@H]5CO[C@@](Cn6cncn6)(c6ccc(F)cc6F)C5)cc4)CC3)cc2)c1=O [POSACONAZOLE]	> 30						> 30	> 30	> 30	> 1		
CC1OC2(CS1)CN1CCC2CC1 (stereo unspecified) [CEVIMELINE]	> 10	> 30	> 10	> 10		> 30						
OC1(c2ccc(Cl)cc2)c2ccccc2C2=NCCN21 (stereo unspecified) [MAZINDOL]	> 30	> 10	> 30	> 10	> 30	16					> 30	
C=CCNc1nc(NCC=C)nc(N2CCN(C(c3ccc(F)cc3)c3ccc(F)cc3)CC2)n1 [ALMITRINE]	> 30	> 30	> 30	> 30	> 30	> 30						
CC(C(=O)O)c1ccc(-c2ccccc2)c(F)c1 (stereo unspecified) [FLURBIPROFEN]		> 10	> 10	> 10	> 10	> 30	> 30	> 30	> 30	> 30		
Nc1ncn([C@H]2C[C@H](O)[C@@H](CO)O2)c(=O)n1 [DECITABINE]	> 30	> 30	> 30	> 30	> 30	> 30						
CC(C(=O)O)c1ccc(CC2CCCC2=O)cc1 (stereo unspecified) [LOXOPROFEN]				> 30	> 30	> 30					> 30	> 30
CC(C)[C@H](N)C(=O)OCC(CO)OCn1cnc2c(=O)nc(N)[nH]c21 (stereo partly specified) [VALGANCICLOVIR]	> 30	> 30	> 30	> 30	> 30	> 30						
CCC1(c2ccccc2)CCC(=O)NC1=O (stereo unspecified) [GLUTETHIMIDE]	> 10	> 10	> 10	> 10	> 10						> 30	
O=[N+]([O-])c1ccc(O)c2ncccc12 [NITROXOLINE]					> 30			> 10	> 30		> 30	> 30
CNCc1ccc(-c2[nH]c3cc(F)cc4c3c2CCNC4=O)cc1 [RUCAPARIB]		12.3	> 30		> 10							
C[C@H](Cc1cc2c(c(C(N)=O)c1)N(CCCO)CC2)NCCOc1ccccc1OCC(F)(F)F [SILODOSIN]							> 30	> 30	0.003	0.003		
COc1cc(N2CCC(N3CCN(C)CC3)CC2)ccc1Nc1ncc(Cl)c(Nc2ccccc2P(C)(C)=O)n1 [BRIGATINIB]							> 30	> 30	> 30	> 30		
CCCN[C@H]1CCc2nc(N)sc2C1 [PRAMIPEXOLE]	> 30	> 10	> 30	> 10	> 10						> 30	
Cc1noc(NS(=O)(=O)c2ccc(N)cc2)c1C [SULFISOXAZOLE]	> 10	> 10		> 10	> 10						> 30	
Clc1ccc(C(Cn2ccnc2)OCc2ccsc2Cl)c(Cl)c1 (stereo unspecified) [TIOCONAZOLE]	10.3	13.5	> 30	23	> 30	> 30						
Cc1cc(NC(=O)C2=C(O)c3ccccc3S(=O)(=O)N2C)no1 [ISOXICAM]							> 30	> 30	> 30	> 30		
CC(C)(C)C(=O)OCC(=O)[C@H]1CC[C@H]2[C@@H]3CCC4=CC(=O)CC[C@]4(C)[C@H]3CC[C@]12C [DESOXYCORTICOSTERONE PIVALATE]		> 10	> 10	> 10	> 10						> 30	
c1ccc2c(c1)CCc1ccccc1N2C1CN2CCC1CC2 (stereo unspecified) [QUINUPRAMINE]							> 30	> 30	23.3	2.41		
CN1C(=O)/C(=N\NC(N)=S)c2ccccc21 [METHISAZONE]							> 30	> 30	> 30	13.1		
Cc1cc2cc3c(C)cc(=O)oc3c(C)c2o1 [TRIOXSALEN]	> 30	> 10		> 10	> 10	> 30						
NC(=O)OCC(O)COc1ccc(Cl)cc1 (stereo unspecified) [CHLORPHENESIN CARBAMATE]							> 30	> 30	> 30	> 30		
Cc1cnc(C(=O)NCCc2ccc(S(=O)(=O)NC(=O)NC3CCCCC3)cc2)cn1 [GLIPIZIDE]		> 10	> 10				14		29.9	> 3		
CCOC(=O)[C@H](CCc1ccccc1)N[C@@H](C)C(=O)N(CC(=O)O)C1Cc2ccccc2C1							> 30	> 30	> 30	> 30		
CCC[C@H](NC(=O)[C@@H]1[C@H]2CCC[C@H]2CN1C(=O)[C@@H](NC(=O)[C@@H](NC(=O)c1cnccn1)C1CCCCC1)C(C)(C)C)C(=O)C(=O)NC1CC1		> 10	> 10	> 10								
C[C@H](Cc1ccc(O)c(O)c1)[C@@H](C)Cc1ccc(O)c(O)c1 [MASOPROCOL]		8.61	> 10	> 10	> 30						> 30	
